Laboratory results taken from the NIST ThermoML archive (doi:10.1016/j.jct.2013.04.017).
Numbers after ± are expanded uncertainties.

Experiment: mn = molality of the nth substance listed, in mol/kg
Details: 101 kPa, Liquid, fixed-path interferometer

Compound `O=C(O)CC(O)(CC(=O)O)C(=O)O` [citric acid] + O has a speed of sound (288.15 K, m1 = 0.1003) of 1469.9 ± 1.1 m/s, a speed of sound (288.15 K, m1 = 0.2504) of 1477.4 ± 1.1 m/s and a speed of sound (288.15 K, m1 = 0.5006) of 1490.5 ± 1.1 m/s. For the same compound, the speed of sound (288.15 K, m1 = 0.9988) was 1515 ± 1.1 m/s, the speed of sound (288.15 K, m1 = 1.502) was 1538 ± 1.2 m/s and the speed of sound (288.15 K, m1 = 2.023) was 1560.3 ± 1.2 m/s. It also gave a speed of sound (288.15 K, m1 = 2.502) of 1578.8 ± 1.2 m/s, a speed of sound (288.15 K, m1 = 3.006) of 1595.4 ± 1.2 m/s and a speed of sound (288.15 K, m1 = 3.505) of 1613.1 ± 1.2 m/s. It also gave a speed of sound (288.15 K, m1 = 3.998) of 1626.2 ± 1.2 m/s, a speed of sound (288.15 K, m1 = 4.506) of 1640.7 ± 1.2 m/s and a speed of sound (288.15 K, m1 = 4.997) of 1654.7 ± 1.3 m/s. The speed of sound (293.15 K, m1 = 0.1003) was 1485.9 ± 1.1 m/s, the speed of sound (293.15 K, m1 = 0.2504) was 1492.5 ± 1.1 m/s and the speed of sound (293.15 K, m1 = 0.5006) was 1504 ± 1.1 m/s. The speed of sound (293.15 K, m1 = 0.9988) was 1526.4 ± 1.1 m/s, the speed of sound (293.15 K, m1 = 1.502) was 1547.1 ± 1.2 m/s and the speed of sound (293.15 K, m1 = 2.023) was 1567.1 ± 1.2 m/s. The speed of sound (293.15 K, m1 = 2.502) was 1584.1 ± 1.2 m/s, the speed of sound (293.15 K, m1 = 3.006) was 1598.9 ± 1.2 m/s and the speed of sound (293.15 K, m1 = 3.505) was 1615.3 ± 1.2 m/s. It also gave a speed of sound (293.15 K, m1 = 3.998) of 1628.7 ± 1.2 m/s, a speed of sound (293.15 K, m1 = 4.506) of 1636.7 ± 1.2 m/s and a speed of sound (293.15 K, m1 = 4.997) of 1653.3 ± 1.3 m/s. It also gave a speed of sound (298.15 K, m1 = 0.1003) of 1499.4 ± 1.1 m/s, a speed of sound (298.15 K, m1 = 0.2504) of 1505.5 ± 1.1 m/s and a speed of sound (298.15 K, m1 = 0.5006) of 1516.1 ± 1.1 m/s. For the same compound, the speed of sound (298.15 K, m1 = 0.9988) was 1535.8 ± 1.1 m/s, the speed of sound (298.15 K, m1 = 1.502) was 1554.4 ± 1.2 m/s and the speed of sound (298.15 K, m1 = 2.023) was 1572.5 ± 1.2 m/s. The speed of sound (298.15 K, m1 = 2.502) was 1587.9 ± 1.2 m/s, the speed of sound (298.15 K, m1 = 3.006) was 1603 ± 1.2 m/s and the speed of sound (298.15 K, m1 = 3.505) was 1616.7 ± 1.2 m/s. For the same compound, the speed of sound (298.15 K, m1 = 3.998) was 1629.1 ± 1.2 m/s, the speed of sound (298.15 K, m1 = 4.506) was 1641 ± 1.2 m/s and the speed of sound (298.15 K, m1 = 4.997) was 1651.3 ± 1.3 m/s. For the same compound, the speed of sound (303.15 K, m1 = 0.1003) was 1510.9 ± 1.1 m/s, the speed of sound (303.15 K, m1 = 0.2504) was 1516.2 ± 1.1 m/s and the speed of sound (303.15 K, m1 = 0.5006) was 1525.7 ± 1.1 m/s. The speed of sound (303.15 K, m1 = 0.9988) was 1543.3 ± 1.1 m/s, the speed of sound (303.15 K, m1 = 1.502) was 1560.8 ± 1.2 m/s and the speed of sound (303.15 K, m1 = 2.023) was 1576.7 ± 1.2 m/s. The speed of sound (303.15 K, m1 = 2.502) was 1590.5 ± 1.2 m/s, the speed of sound (303.15 K, m1 = 3.006) was 1603 ± 1.2 m/s and the speed of sound (303.15 K, m1 = 3.505) was 1615.6 ± 1.2 m/s. The speed of sound (303.15 K, m1 = 3.998) was 1626.7 ± 1.2 m/s, the speed of sound (303.15 K, m1 = 4.506) was 1637.8 ± 1.2 m/s and the speed of sound (303.15 K, m1 = 4.997) was 1648.6 ± 1.3 m/s. The speed of sound (308.15 K, m1 = 0.1003) was 1521 ± 1.1 m/s, the speed of sound (308.15 K, m1 = 0.2504) was 1525.8 ± 1.1 m/s and the speed of sound (308.15 K, m1 = 0.5006) was 1533.9 ± 1.1 m/s. It also gave a speed of sound (308.15 K, m1 = 0.9988) of 1549.4 ± 1.1 m/s, a speed of sound (308.15 K, m1 = 1.502) of 1565.6 ± 1.2 m/s and a speed of sound (308.15 K, m1 = 2.023) of 1579.8 ± 1.2 m/s. The speed of sound (308.15 K, m1 = 2.502) was 1592.4 ± 1.2 m/s, the speed of sound (308.15 K, m1 = 3.006) was 1603.6 ± 1.2 m/s and the speed of sound (308.15 K, m1 = 3.505) was 1615.2 ± 1.2 m/s. It also gave a speed of sound (308.15 K, m1 = 3.998) of 1622.6 ± 1.2 m/s, a speed of sound (308.15 K, m1 = 4.506) of 1635.5 ± 1.2 m/s and a speed of sound (308.15 K, m1 = 4.997) of 1640.1 ± 1.3 m/s. It also gave a speed of sound (313.15 K, m1 = 0.1003) of 1529.8 ± 1.1 m/s, a speed of sound (313.15 K, m1 = 0.2504) of 1533.9 ± 1.1 m/s and a speed of sound (313.15 K, m1 = 0.5006) of 1541.2 ± 1.1 m/s. For the same compound, the speed of sound (313.15 K, m1 = 0.9988) was 1554.9 ± 1.1 m/s, the speed of sound (313.15 K, m1 = 1.502) was 1569.5 ± 1.2 m/s and the speed of sound (313.15 K, m1 = 2.023) was 1582.2 ± 1.2 m/s. For the same compound, the speed of sound (313.15 K, m1 = 2.502) was 1593.7 ± 1.2 m/s, the speed of sound (313.15 K, m1 = 3.006) was 1603.8 ± 1.2 m/s and the speed of sound (313.15 K, m1 = 3.505) was 1614.2 ± 1.2 m/s. For the same compound, the speed of sound (313.15 K, m1 = 3.998) was 1621 ± 1.2 m/s, the speed of sound (313.15 K, m1 = 4.506) was 1632.7 ± 1.2 m/s and the speed of sound (313.15 K, m1 = 4.997) was 1635.7 ± 1.3 m/s. For the same compound, the speed of sound (318.15 K, m1 = 0.1003) was 1537.2 ± 1.1 m/s, the speed of sound (318.15 K, m1 = 0.2504) was 1540.5 ± 1.1 m/s and the speed of sound (318.15 K, m1 = 0.5006) was 1546.1 ± 1.1 m/s. It also gave a speed of sound (318.15 K, m1 = 0.9988) of 1558.2 ± 1.1 m/s, a speed of sound (318.15 K, m1 = 1.502) of 1572 ± 1.2 m/s and a speed of sound (318.15 K, m1 = 2.023) of 1583.7 ± 1.2 m/s. For the same compound, the speed of sound (318.15 K, m1 = 2.502) was 1593.9 ± 1.2 m/s, the speed of sound (318.15 K, m1 = 3.006) was 1599.9 ± 1.2 m/s and the speed of sound (318.15 K, m1 = 3.505) was 1612.6 ± 1.2 m/s. It also gave a speed of sound (318.15 K, m1 = 3.998) of 1618.9 ± 1.2 m/s, a speed of sound (318.15 K, m1 = 4.506) of 1629.6 ± 1.2 m/s and a speed of sound (318.15 K, m1 = 4.997) of 1632.1 ± 1.3 m/s. The speed of sound (323.15 K, m1 = 0.1003) was 1542.6 ± 1.1 m/s, the speed of sound (323.15 K, m1 = 0.2504) was 1545.9 ± 1.1 m/s and the speed of sound (323.15 K, m1 = 0.5006) was 1550.7 ± 1.1 m/s. For the same compound, the speed of sound (323.15 K, m1 = 0.9988) was 1561.1 ± 1.1 m/s, the speed of sound (323.15 K, m1 = 1.502) was 1573.3 ± 1.2 m/s and the speed of sound (323.15 K, m1 = 2.023) was 1582.6 ± 1.2 m/s. The speed of sound (323.15 K, m1 = 2.502) was 1592.9 ± 1.2 m/s, the speed of sound (323.15 K, m1 = 3.006) was 1598.2 ± 1.2 m/s and the speed of sound (323.15 K, m1 = 3.505) was 1609.7 ± 1.2 m/s. For the same compound, the speed of sound (323.15 K, m1 = 3.998) was 1615.4 ± 1.2 m/s, the speed of sound (323.15 K, m1 = 4.506) was 1625.3 ± 1.2 m/s and the speed of sound (323.15 K, m1 = 4.997) was 1626.1 ± 1.3 m/s.
